The subject of assay [1] is Alternaria solani. Conditions: Alternaria solani (Potato); 18° C. for 7 days.
Procedure: (§1) A stock solution of the compound was prepared in DMSO at a concentration of 10,000 ppm a.i. Further dilutions were prepared with water. The test was conducted at the following concentrations: 125, 31, 8, 21, 0.5 and 0.125 ppm a.i. Spore suspensions of the fungi were prepared. The test was conducted in microtiter plates and for each fungus and each concentration, 3 wells were prepared. Incubation of the inoculated plates was carried out at 18° C. for 7 days. After this time, the optical density of the mycelium developed in each well was measured at 405 nm.
Assay [2] relates to Colletotrichum lagenarium. In words: Plant relevant mold panel, microtiter plate growth inhibition (OD 405 nm), IC 90. In kind it is cell-based. The note with it: Colletotrichum lagenarium (Mellons); 18° C. for 7 days.
The test system of assay [3] is roundworms, threadworms, and whipworms. The note with it: reported; cited from earlier work.
Assay [4] has as its system Pyricularia oryzae. Conditions: Pyricularia oryzae (Rice); 18° C. for 7 days.
For assay [5], the system named is Septonia tritici. In words: Plant relevant mold panel, microtiter plate growth inhibition (OD 405 nm), IC 90. In kind it is cell-based. The note with it: Septonia tritici (Wheat Leaf); 18° C. for 7 days.
The subject of assay [6] is Phytophthora infestans. The note with it: Phytophthora infestans (Tomato); 18° C. for 7 days.
Assay [7] has as its system Rhizoctonia solani. The assay is described as follows: Plant relevant mold panel, microtiter plate growth inhibition (OD 405 nm), IC 90. In kind it is cell-based. Conditions: Rhizoctonia solani (Rice Sheath); 18° C. for 7 days.
Assay [8] has as its system Fusarium culmorum. Conditions: Fusarium culmorum (Wheat Head); 18° C. for 7 days.
Procedure: as §1
The subject of assay [9] is Cochliobolus mijabeanus. Conditions: Cochliobolus mijabeanus (Corn); 18° C. for 7 days.
Procedure: as §1
In assay [10] the test system is Botrytis cinerea. In words: Plant relevant mold panel, microtiter plate growth inhibition (OD 405 nm), IC 90. In kind it is cell-based. Conditions: Botrytis cinerea (Vegetable); 18° C. for 7 days.
The test system of assay [11] is Pyrenophora teres. Described as above. Conditions: Pyrenophora teres (Barley); 18° C. for 7 days. In kind it is cell-based.
Assay [12] has as its system Pseudomonas aerugenosa. Conditions: in vitro, 24 hours at 35° C.
Assay [13] has as its system Trichophyton mentagrophyt.
Assay [14] relates to Candida albicans. The note with it: in vitro, 24 hours at 35 degrees C.
In assay [15] the test system is Trichophyton eguinium.
For assay [16], the system named is Candida tropicalis. Conditions: in vitro, 24 hours at 35 degrees C.
The subject of assay [17] is Pasturella multocida. The note with it: in vitro, 24 hours at 35° C.
Assay [18] deals with Cryptococcus neoformans. The note with it: in vitro, 24 hours at 35 degrees C.
The subject of assay [19] is Trichophyton rubrum.
Assay [20] relates to Microsporidium canis.
The subject of assay [21] is Fusarium solani. Conditions: in vitro, 24 hours at 35 degrees C.
The test system of assay [22] is Aspergillus flavus. Conditions: in vitro, 24 hours at 35 degrees C.
The test system of assay [23] is Saccharomyces cervisciae.
Assay [24] concerns E. coli. Conditions: in vitro, 24 hours at 35° C.
Assay [25] concerns Bordella bronchiseptica. Conditions: in vitro, 24 hours at 35° C.
The subject of assay [26] is Vibrio cholerae. The note with it: in vitro, 24 hours at 35° C.
Assay [27] deals with Rhizopus arrihizus.
Assay [28] deals with Streptococcus algalactia. The note with it: in vitro, 24 hours at 35° C.
In assay [29] the test system is Streptococcus faecalis. The note with it: in vitro, 24 hours at 35° C.
In assay [30] the test system is Aspergillus fumigatus. Conditions: in vitro, 24 hours at 35 degrees C.
Assay [31] has as its system Staphylococcus aureus. The note with it: in vitro, 24 hours at 35° C.
In assay [32] the test system is Epidermophyton floccsum.
Assay [33] concerns Streptococcus pyogenes. Conditions: in vitro, 24 hours at 35° C.
The subject of assay [34] is Microsporidium gypseum.

On to `CC[n+]1c(/C=C/c2ccc(N3CCCC3)cc2)cccc1/C=C/c1ccc(N2CCCC2)cc1.[I-]` [Stilbazium iodide], for which the IC90 in assay [1] is listed as more than 125 ppm a.i; in [2] it was 31 ppm a.i; in [4], 8 ppm a.i; in [5] it was 2 ppm a.i; in [6], 2 ppm a.i; in assay [7], 2 ppm a.i. Besides, the IC90 was more than 125 ppm a.i in assay [8], more than 125 ppm a.i in assay [9], 0.5 ppm a.i in [10] and 31 ppm a.i in assay [11]. In [3], the anthelmintic effectiveness entry is “effective”.

On to Stilbazium Chloride [formula I], for which the minimal inhibitory concentration (MIC) in [12] is more than 100 µg/mL; in assay [13], 1.6 µg/mL; in assay [14], less than 6 ng/mL; in assay [15], 1.6 µg/mL; in [16], less than 0.4 µg/mL; in [17] it was 3.0 µg/mL. The minimum inhibitory concentration (MIC) in assay [18] was less than 0.4 µg/mL; in assay [19], 1.6 µg/mL; in assay [20] it was 1.6 µg/mL; in assay [21], less than 0.4 µg/mL; in assay [22], 6.25 µg/mL; in assay [23], less than 0.4 µg/mL. For the same molecule, the MIC is more than 100 µg/mL in [24]; 1.0 µg/mL in assay [25]; 10.0 µg/mL in assay [26]; 6.25 µg/mL in assay [27]; 1.0 µg/mL in assay [28]; 1.0 µg/mL in assay [29]. Further, the minimum inhibitory concentration (MIC) was less than 6 ng/mL in assay [30]; 0.3 µg/mL in assay [31]; 1.6 µg/mL in assay [32]; 1.0 µg/mL in assay [33]; 1.6 µg/mL in assay [34].

As a reminder, the MIC is the least concentration at which growth counts as inhibited. Read a high MIC as a less susceptible organism.

The values are drawn from patent publication US7547444B1, “Methods for controlling fungi and bacteria” (priority 2003, dated 2009).
